Data as given in the SangsterLogP compilation.

Structure (SMILES)	logP
Clc1ccc(C(Cn2ccnc2)OCC2CCCCC2)c(Cl)c1 (stereo unspecified)	6.5
CC(C)CCOC(Cn1ccnc1)c1ccc(Cl)cc1Cl (stereo unspecified)	5.71
C=CCCCOC(Cn1ccnc1)c1ccc(Cl)cc1Cl (stereo unspecified)	4.94
C=C(C)COC(Cn1ccnc1)c1ccc(Cl)cc1Cl (stereo unspecified)	4.26
CCCCC(CC)COC(Cn1ccnc1)c1ccc(Cl)cc1Cl (stereo unspecified)	6.89
CCC(CC)COC(Cn1ccnc1)c1ccc(Cl)cc1Cl (stereo unspecified)	6.24
C=CCCOC(Cn1ccnc1)c1ccc(Cl)cc1Cl (stereo unspecified)	4.33
CCCC(C)OC(Cn1ccnc1)c1ccc(Cl)cc1Cl (stereo unspecified)	4.9
CCC(C)OC(Cn1ccnc1)c1ccc(Cl)cc1Cl (stereo unspecified)	4.5
CC(C)=CCOC(Cn1ccnc1)c1ccc(Cl)cc1Cl (stereo unspecified)	5.04
CCC(CC)OC(Cn1ccnc1)c1ccc(Cl)cc1Cl (stereo unspecified)	5.13
